Measurements as given in article PMC6321136, “Combined In Vitro Studies and in Silico Target Fishing for the Evaluation of the Biological Activities of Diphylleia cymosa and Podophyllum hexandrum” (Molecules, 2018).

Key:
[1] = system: Enterohemorrhagic E. coli ATCC 43895-EHEC; test: Antibacterial microdilution assay; type: cell-based, Escherichia coli
[2] = system: Escherichia coli ATCC 11775; test: Antibacterial microdilution assay; type: cell-based; conditions: ATCC11775, read-out: E. coli Mean ± SD (percentage of inhibition of microbial growth)
Experimental: (§1) Antibacterial susceptibility was performed using the modified microdilution method for bacteria, against Gram-positive (Staphylococcus aureus ATCC 25923 and Bacillus cereus ATCC 11778) and Gram-negative recognized pathogens (Escherichia coli ATCC 11775, Enterohemorrhagic E. coli ATCC 43895-EHEC, Pseudomonas aeruginosa ATCC 10145 and Salmonella choleraesuis subs. choleraesuis sorotype Typhi BM/Panama-TY2).
(§2) The experiments were performed in 96 well microplates. The extracts and isolated substance solubilized in DMSO (Vetec^TM) at 50 mg/mL were diluted in Mueller Hinton Broth (MHB, Difco) at a concentration of 500 µg/mL. The bacterial isolates, criopreserved at −80 °C were grown in Tryptic Soy Agar (TSA, Acumedia®) plates, at 37 °C for 18–24 h. The inoculum was adjusted in saline solution in a spectrophotometer at 625 nm, to a concentration of 1–5 × 10^8 CFU/mL and then diluted in MHB to 1–5 × 10^5 CFU/mL.
(§3) Volumes of 100 μL of the inoculum were added to wells containing 100 μL of the extracts at […], in triplicate (one well intended for extract control), resulting in a final concentration of 250 μg/mL. Chloramphenicol at 50 μg/mL and 0.5% DMSO were used as positive and negative controls, respectively. Evaluation of microbial growth was carried out by adding the inoculum to a well containing only MHB. Sterility of the culture medium was also confirmed by incubation in the assay plate. Assays were performed in triplicate. The microplates were incubated at 37 °C for 24 h. As an indicator of microbial growth, 20 μL of 2,3,5-triphenyltetrazolium chloride (TTC, Sigma-Aldrich, St. Louis, MO, USA) at 5 mg/mLwere added to each well. The plates were incubated at 37 °C for 3 h and then the TTC was solubilized with 100 μL of sodium lauryl sulfate solution in isopropanol 7 μg/mL and measured in a microplate reader at 485 nm. The result was expressed as the percentage of inhibition compared with the microbial growth control, and was considered positive for antibacterial activity for those extracts with an inhibition higher than 50%.

[3] = system: Staphylococcus aureus ATCC 25923; test: Antibacterial microdilution assay; type: cell-based; conditions: ATCC25923, read-out: S. aureus Mean ± SD (percentage of inhibition of microbial growth)
Experimental: as §1, §2, §3

[4] = system: Bacillus cereus ATCC 11778; test: Antibacterial microdilution assay; type: cell-based; conditions: ATCC11778, read-out: B. cereus Mean ± SD (percentage of inhibition of microbial growth)
Experimental: as §1, §2, §3

[5] = system: Pseudomonas aeruginosa ATCC 10145; test: Antibacterial microdilution assay; type: cell-based
Experimental: as §1, §2, §3

[6] = system: Agonist, endoplasmic reticulum stress response; set-up: method as in PubChem Bioassay AID 1159519; conditions: ref PubChem Bioassay AID 1159519; cited from earlier work
[7] = system: Antagonist, retinoid-related orphan receptor gamma (ROR-gamma); set-up: method as in PubChem Bioassay AID 1159521; conditions: ref PubChem Bioassay AID 1159521; cited from earlier work
[8] = system: Cytotoxicity, Agonist, peroxisome proliferator-activated receptor delta (PPARd); set-up: method as in PubChem Bioassay AID 743211; conditions: ref PubChem Bioassay AID 743211; cited from earlier work
Anticancer, Leukemia = system: Anticancer, Leukemia; set-up: method as in PubChem Bioassay AID 328; conditions: ref PubChem Bioassay AID 328; cited from earlier work
[9] = system: Cytotoxicity, Activate, aryl hydrocarbon receptor (AhR); set-up: method as in PubChem Bioassay AID 743086; conditions: ref PubChem Bioassay AID 743086; cited from earlier work
[10] = system: Agonist, retinoic acid receptor (RAR); set-up: method as in PubChem Bioassay AID 1159553; conditions: ref PubChem Bioassay AID 1159553; cited from earlier work
Agonist, AP-1 = system: Agonist, AP-1; set-up: method as in PubChem Bioassay AID 1159528; conditions: ref PubChem Bioassay AID 1159528; cited from earlier work
[11] = system: Antagonist, constitutive androstane receptor (CAR); set-up: method as in PubChem Bioassay AID 1224838; conditions: ref PubChem Bioassay AID 1224838; cited from earlier work

COc1cc([C@@H]2c3cc4c(cc3[C@H](O)[C@H]3COC(=O)[C@H]23)OCO4)cc(OC)c1OC [Podophyllotoxin, podophyllotoxin]
EHEC E. coli Mean ± SD (percentage of inhibition of microbial growth) ([1]; 250 µg/mL): No antibacterial activity
inhibition at 250 µg/mL ([1]; Escherichia coli, ATCC43895, read-out: EHEC E. coli Mean ± SD (percentage of inhibition of microbial growth)): 33 ± 7.76%
inhibition at 250 µg/mL [2]: 51.6 ± 9.08%
inhibition at 250 µg/mL [3]: 53.3 ± 8.8%
inhibition at 250 µg/mL [4]: 0%
P. aeruginosa Mean ± SD (percentage of inhibition of microbial growth) ([5]; 250 µg/mL): No antibacterial activity
inhibition at 250 µg/mL ([5]; Pseudomonas aeruginosa, ATCC10145, read-out: P. aeruginosa Mean ± SD (percentage of inhibition of microbial growth)): 30.2 ± 9.39%
Exper. Activity [6]: Inactive
Exper. Activity [7]: Active
Exper. Activity [8]: Inactive
Exper. Activity (Anticancer, Leukemia): Active
Exper. Activity [9]: Inactive
Exper. Activity [10]: Inactive
Exper. Activity (Agonist, AP-1): Active
Exper. Activity [11]: Active
